Here are results for 17 molecules from patent US5180831A (priority 1990, dated 1993).

Data set [1] is described as follows: in vivo. The note with it: mouse, im.
A further data set has as its system AChE. It is filed as biochemical, electric eel and human.
A short description of data set [2]: in vivo. Particulars: mouse, po.
For data set [3] the following is noted: mouse, in vivo.
On the set-up of data set [4]: species or system Male ICR mice. Particulars: mouse, in vivo.
The target in a further data set is electric eel AChE (Electrophorus electricus, UniProt O42275). The data set is described as follows: biochemical.
Chain of electric eel AChE (O42275 24-633): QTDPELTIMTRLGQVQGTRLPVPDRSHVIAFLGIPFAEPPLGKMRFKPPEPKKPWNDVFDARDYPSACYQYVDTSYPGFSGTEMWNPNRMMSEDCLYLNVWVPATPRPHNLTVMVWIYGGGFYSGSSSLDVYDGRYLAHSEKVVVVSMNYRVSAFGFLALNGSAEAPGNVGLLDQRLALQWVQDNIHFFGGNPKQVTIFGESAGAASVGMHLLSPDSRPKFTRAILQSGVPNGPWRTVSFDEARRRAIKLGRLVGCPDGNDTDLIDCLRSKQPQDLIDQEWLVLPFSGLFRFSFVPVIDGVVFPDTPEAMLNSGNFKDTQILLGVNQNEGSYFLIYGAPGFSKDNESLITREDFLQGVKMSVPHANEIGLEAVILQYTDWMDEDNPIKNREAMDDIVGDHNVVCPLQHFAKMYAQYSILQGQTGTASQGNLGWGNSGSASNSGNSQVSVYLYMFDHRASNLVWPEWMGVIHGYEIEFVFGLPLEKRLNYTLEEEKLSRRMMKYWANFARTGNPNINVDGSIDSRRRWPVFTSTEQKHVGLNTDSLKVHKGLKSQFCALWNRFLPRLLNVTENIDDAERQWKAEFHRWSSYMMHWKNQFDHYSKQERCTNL
The target of the next data set is human erythrocyte AChE (Homo sapiens, UniProt P22303). The data set is described as follows: biochemical. Particulars: read-out: kobs /[I] (human).
Chain of human erythrocyte AChE (P22303-2 with tags, fused parts or gaps limits assumed): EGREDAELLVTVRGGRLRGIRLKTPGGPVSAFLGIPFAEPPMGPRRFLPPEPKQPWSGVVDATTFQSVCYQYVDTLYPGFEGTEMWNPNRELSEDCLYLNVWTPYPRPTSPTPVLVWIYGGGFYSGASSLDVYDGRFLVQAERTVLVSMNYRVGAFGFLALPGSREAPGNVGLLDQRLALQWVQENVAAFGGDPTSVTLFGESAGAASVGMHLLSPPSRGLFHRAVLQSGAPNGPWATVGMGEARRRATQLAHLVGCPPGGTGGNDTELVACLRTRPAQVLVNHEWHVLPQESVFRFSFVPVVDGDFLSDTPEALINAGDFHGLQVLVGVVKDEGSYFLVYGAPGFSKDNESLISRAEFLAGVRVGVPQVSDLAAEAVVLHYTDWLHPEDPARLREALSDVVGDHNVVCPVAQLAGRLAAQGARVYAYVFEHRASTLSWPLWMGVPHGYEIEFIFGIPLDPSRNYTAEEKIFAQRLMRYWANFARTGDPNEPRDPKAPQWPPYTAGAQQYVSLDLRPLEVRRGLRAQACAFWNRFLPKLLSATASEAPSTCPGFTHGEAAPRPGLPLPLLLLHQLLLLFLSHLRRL

Each structure is given as a SMILES string. Entries after “also recorded” stand apart in the source; their conditions may differ.

In the data set “in vivo [1]”, `C[n+]1ccccc1C=NOCc1ccccc1` [Compound 1a, O-Benzyl-N-(1-methyl-2-pyridinemethylene) hydroxylamine chloride] gave a 50% lethal dose (LD50) at 24 h of 180 µmol/kg. Besides, the mode of inhibition entry in the data set with AChE is “pure competitive inhibition”.

For `C[n+]1cccc(O)c1C=NOCc1ccccc1` [Compound 1b, O-Benzyl-N-(3-hydroxy-1-methyl-2-pyridinemethylene) hydroxylamine chloride], the LD50 at 24 h was over 880 µmol/kg in the data set “in vivo [1]” and 3600 µmol/kg in “in vivo [2]”. For the same molecule, the mode of inhibition result with AChE is “pure competitive inhibition”.

`CON=Cc1c(O)ccc[n+]1C` [Compound 1c, O-Methyl-N-(3-hydroxy-1-methyl-2-pyridinemethylene) hydroxylamine chloride]: the median lethal dose (LD50) at 24 h in the data set “in vivo [1]” was over 1970 µmol/kg.

In “in vivo [1]”, `C[n+]1cccc(O)c1C=NOCc1ccc(Cl)cc1` [Compound 1d, O-(p-Chlorobenzyl)-N-(3-hydroxy-1-methyl-2-pyridinemethylene) hydroxylamine chloride] registered an LD50 at 24 h of over 320 µmol/kg. Further, in the data set with AChE, the mode of inhibition entry is “pure competitive inhibition”.

As for `COc1ccc(CON=Cc2c(O)ccc[n+]2C)cc1` [Compound 1e, O-(p-Methoxybenzyl)-N-(3-hydroxy-1-methyl-2-pyridinemethylene) hydroxylamine chloride], the figures for the 50% lethal dose (LD50) at 24 h in “in vivo [1]” and in “in vivo [2]” were over 760 µmol/kg and over 3200 µmol/kg, respectively. In the data set with AChE, the mode of inhibition entry is “pure competitive inhibition”.

On to `C[n+]1cccc(O)c1C=NO` [Compound 1f], for which, in data set [3], the toxicity in words entry is listed as “small increase in toxicity”.

Take `C[n+]1cc(O)ccc1C=NO` [Compound 1g, reference compound]: the toxicity in words result in data set [3] is recorded as “small increase in toxicity”. For the same molecule, the median lethal dose (LD50) at 24 h in the data set “in vivo [1]” is over 514 µmol/kg.

Molecule `C[n+]1ccccc1/C=N/O` [Compound 2-PAM, reference compound] gave an LD50 at 24 h in the data set “in vivo [1]” of 853 µmol/kg.

For the molecule `C[n+]1cccc(O)c1C=NNC(N)=O.[Cl-]` [Compound 3a, 2-[[(Aminocarbonyl)hydrazono]methyl]-3-hydroxy-1-methyl pyridinium chloride], in “in vivo [1]”, the LD50 at 24 h was over 1100 µmol/kg.

Molecule `C[n+]1cccc(O)c1C=NNC(=O)Nc1ccccc1.[Cl-]` [Compound 3b, 3-Hydroxy-1-methyl-2-[[(N-phenylaminocarbonyl)hydrazono]methyl]pyridinium chloride] came in with a median lethal dose (LD50) at 24 h in the data set “in vivo [1]” of over 40 µmol/kg.

On to `C[n+]1ccccc1C=NNC(N)=O` [Compound 3c], for which the 50% lethal dose (LD50) at 24 h in “in vivo [1]” is over 560 µmol/kg.

In turn, `C[n+]1ccccc1C=NNC(=O)Nc1ccccc1.[Cl-]` [Compound 3d, 1-Methyl-2-[[(N-phenylaminocarbonyl)hydrazono]methyl]pyridinium chloride] had an LD50 at 24 h in the data set “in vivo [1]” of over 430 µmol/kg.

As for `C[n+]1cccc(O)c1C=NNC(=O)C[n+]1ccccc1` [Compound 5a, 2-(3-Hydroxy-1-methyl-2-pyridinemethylene)-1-[2-(1-pyridinium)acetyl]hydrazine dichloride], the figures for the median lethal dose (LD50) at 24 h in “in vivo [1]” and in “in vivo [2]” were over 670 µmol/kg and 2900 µmol/kg, respectively. Besides, in data set [4], the “GA reactivator activity in words” value is on record as “significant activity as GA reactivators; also recorded: good in vivo reactivators against GA”.

`C[n+]1ccccc1C=NNC(=O)C[n+]1ccccc1` [Compound 5b, 2-(1-Methyl-2-pyridinemethylene)-1-[2-(1-pyridinium)acetyl]hydrazine dichloride] gave a 50% lethal dose (LD50) at 24 h in the data set “in vivo [1]” of 380 µmol/kg. Moreover, the “GA reactivator activity in words” value in data set [4] is “significant activity as GA reactivators; also recorded: good in vivo reactivators against GA”.

The molecule `NC(=O)c1cc[n+](COC[n+]2ccccc2/C=N/O)cc1` [HI-6, reference compound] gave an LD50 at 24 h in “in vivo [1]” of 4500 µmol/kg.

Turning to `CNC(=O)Oc1ccc2c(c1)[C@]1(C)CCN(C)[C@@H]1N2C` [Phy, Physostigmine], on electric eel AChE (0.1 m phosphate buffer), the “kobs /[I] (eel)” value came out at 14000 M⁻¹ s⁻¹.

As for `CN(C)C(=O)Oc1ccc[n+](C)c1` [Pyr, Pyridostigmine], the values for the kinact/KI at human erythrocyte AChE and at electric eel AChE (read-out: kobs /[I] (eel)) were 13000 M⁻¹ s⁻¹ and 580 M⁻¹ s⁻¹, respectively.

Broadly, the LD50 is the dose at which mortality reaches 50%. Read a low LD50 as greater toxicity.
